For one series, the system named is CT-26 cancer cells. As to the kind of experiment: (Photo)cytotoxicity in 2D monolayer cells under normoxia (21% O2), resazurin assay. The following applies: for Phototherapeutic index (PI) = IC50(dark)/IC50(light): normoxia; for IC50: Mus musculus. It is filed as cell-based, murine. A general note: The colour change of resazurin is a common sign of viable cells or microbes.

The conditions of series [1]: cited from earlier work.

In general, IC50 refers to the midpoint of a concentration-inhibition curve. A low value points to greater potency in that assay.

SMILES strings stand for the structures. Read-outs that look alike come from different tables or passages of the source.

Method for CT-26 cancer cells: To that end, cells were incubated for 4 h with increasing concentrations of the compounds, and after refreshing the medium, they were either illuminated or kept in the dark. […] The phototoxic index (PI), defined as the ratio of dark to light IC50 values, was used to quantify the phototherapeutic efficiency of the tested compounds. […] Using a well-by-well monochromatic LED device, cells were irradiated with green (540 nm, 40 min), yellow (595 nm, 1 h), red (620 nm, 1 h), deep-red (645 nm, 1 h), far-red (670 nm, 1 h), or NIR (740 nm, 1 h) light, with fluences ranging from 3.4 J/cm^2 (595 nm) to 13.5 J/cm^2 (670 nm).
In vitro (photo)cytotoxicity determination of Ru-COUBPY PSs
CT-26 cells were cultured in Dulbecco’s modified Eagle medium (DMEM) (Gibco)
supplemented with 10% fetal calf serum (Gibco) and 2 mM L-glutamine.
the corresponding culture medium was supplemented with 100 U·mL−1 penicillin streptomycin
mixture (Gibco) and cells were maintained in a humidified atmosphere at 37 °C and 5 % of
(Photo)cytotoxicity evaluation in 2D monolayer cells under normoxia (21% O2)
The (photo)cytotoxicity of the test compounds under normoxia (21% O2) was assessed by a
fluorometric cell viability assay using Resazurin (Acros Organics). CT-26 cells were seeded in
triplicate in 96-well plates at a density of 4000 cells/well in complete medium in a final volume
of 100 μL/well. After 24 h, cells were treated with increasing concentrations of the test
compounds using serial dilutions of the test compounds in complete culture medium (DMSO
≤1 %) at final concentrations in the range of 0 to 250 μM (100 μL/well), followed by a 4-h
incubation at 37 °C, 5% CO2 in the dark. The medium containing the PS was then replaced with
fresh medium (100 μL/well) and plates were irradiated for 1 h at 37 °C, 0 % CO2 with 540 nm
(spectral half-width: 32 nm, 40 min, 3.75 mW cm−2, 9.0 J cm−2), 595 nm (spectral half-width:
mW cm−2, 6.7 J cm−2), 645 nm (spectral half-width: 32 nm, 60 min, 2.50 mW cm−2, 9.0 J cm−2),
670 nm (spectral half-width: 32 nm, 60 min, 3.75 mW cm−2, 13.5 J cm−2) or 740 nm (spectral
half-width: 32 nm, 60 min, 3.50 mW cm−2, 12.6 J cm−2) light using a LED multi-well plate
photo-irradiation system (Atlas Photonics Lumos Bio). To evaluate the cytotoxicity of the test
compounds in the dark, three additional plates of treated cells were kept in the dark for 1 h at
37 °C, 0 % CO2. Cells were then kept in the incubator (37 °C, 5 % CO2) over a recovery period
of 44 h. Next, the medium was replaced with complete medium containing Resazurin (0.2
mg/mL, 100 μL/well), followed by a 4-h incubation at 37 °C, 5 % CO2. Finally, the fluorescence
signal of the Resorufin product was measured (ex = 540 nm, em = 590 nm) using a Infinite
200 PRO Microplate Reader from TECAN. IC50 values were then calculated based on the
inhibitory rate curves using the following equation (6)
where I represent the percentage inhibition of viability observed, Imax is the maximal inhibitory
effect, IC50 is the concentration that inhibits 50% of maximal growth, C is the concentration of
the treatment and n is the slope of the semi-logarithmic dose-response sigmoidal curves. The
non-linear fitting was performed using GraphPad Prism software. All experiments were
performed in three independent studies with triplicate points per concentration level.

Regarding `C=CC1=C(C)c2cc3[nH]c(cc4nc(cc5[nH]c(cc1n2)c(C)c5CCC(=O)O)C(CCC(=O)O)=C4C)c(C)c3C=C` [PpIX, Protoporphyrin IX], the “Phototherapeutic index (PI) = IC50(dark)/IC50(light)” value in the series with CT-26 cancer cells (540 nm) is greater than 312; with CT-26 cancer cells (595 nm), greater than 250; in the series with CT-26 cancer cells (620 nm), greater than 151; with CT-26 cancer cells (645 nm), greater than 588; in the series with CT-26 cancer cells (670 nm) it was greater than 129; with CT-26 cancer cells (740 nm), greater than 50. For the same compound, the IC50 with CT-26 cancer cells (CT26, 540 nm, 9.0 J cm–2, normoxia 21% O2) amounted to 320 ± 90 nM; with CT-26 cancer cells (CT26, 595 nm, 3.4 J cm–2, normoxia 21% O2), 400 ± 10 nM; in the series on CT-26 cancer cells (CT26, 620 nm, 6.7 J cm–2, normoxia 21% O2), 660 ± 210 nM; in the series with CT-26 cancer cells (CT26, 645 nm, 9.0 J cm–2, normoxia 21% O2), 170 ± 210 nM; in the series on CT-26 cancer cells (CT26, 670 nm, 13.5 J cm–2, normoxia 21% O2), 770 ± 200 nM; in the series with CT-26 cancer cells (CT26, 740 nm, 12.6 J cm–2, normoxia 21% O2), 2100 ± 200 nM. The IC50 in the series on CT-26 cancer cells (CT26, 4 h, dark, normoxia 21% O2, 4 h incubation) is greater than 100000 nM.

Regarding `[Cl][Ru][Cl].c1ccc(-c2ccccn2)nc1.c1ccc(-c2ccccn2)nc1.c1ccc(-c2ccccn2)nc1` [[Ru(bpy)3]Cl2], the “reference singlet oxygen quantum yield ΦΔ,ref” value in series [1] (aerated CH3CN) was 0.57.

`CN(C)c1ccc2nc3ccc(=[N+](C)C)cc-3sc2c1` [methylene blue]: the “reference singlet oxygen quantum yield ΦΔ,ref” value in series [1] (aerated DCM) is reported as 0.57.
